Reference: patent publication US4093626A, “β-Lactam antibiotics” (Beecham Group Limited, priority 1976, dated 1978)

How the values were obtained:
[1] = molecular target: β-lactamase enzyme produced by Staphylococcus aureus Russell (Staphylococcus aureus, UniProt P00807); test: Inhibition of the β-lactamase from Staphylococcus aureus Russell (I50); format: biochemical; settings: β-lactamase from Staph. aureus Russell
Method: Inhibition of the β-lactamase from Staphylococcus aureus Russell
I50 values were determined using the process described in Belgium Pat. No. 827,926.

Staph. aureus Russell [2] = test: Antibacterial activity (M.I.C.) against Staphylococcus aureus Russell; format: cell-based; settings: compound alone
Excerpt: (§1) Antibacterial activity and antibacterial synergy with ampicillin against Staphylococcus aureus Russell

Staph. aureus Russell [3] = test: Antibacterial synergy with ampicillin against Staphylococcus aureus Russell (M.I.C. of ampicillin in presence of compound); format: cell-based; settings: inhibitor conc. 20 μg/ml
Excerpt: as §1

Acute toxicity in mice = format: in vivo
Method: The compound (mixture of 2 isomers) from Example 6.2 was tested for acute toxicity in mice as described below.
Mice: CDI, female, 18 - 22 gm. 5 mice per group
The compound was injected in aqueous dimethylformamide (≤15% DMF) at 0.4 ml/20 g for the 2000 mg./Kg. dosage and at 0.2 ml/20 g. for the other dosages.

Chain of β-lactamase enzyme produced by Staphylococcus aureus Russell (P00807 25-281): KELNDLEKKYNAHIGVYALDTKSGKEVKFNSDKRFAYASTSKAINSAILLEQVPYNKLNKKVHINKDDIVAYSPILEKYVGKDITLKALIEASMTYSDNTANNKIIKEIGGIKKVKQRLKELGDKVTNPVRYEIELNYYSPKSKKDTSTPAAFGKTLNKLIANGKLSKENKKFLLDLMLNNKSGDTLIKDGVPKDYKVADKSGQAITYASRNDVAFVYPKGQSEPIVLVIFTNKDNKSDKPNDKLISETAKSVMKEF

O=C1C[C@@H]2O[C@@H](C[S+]([O-])c3ccc([N+](=O)[O-])cc3)CN12 (single isomer, unassigned) [Example 20 (isomer I), (3RS, 5SR)-3-p-Nitrophenylsulphinylmethyl-4-oxa-1-azabicyclo[3.2.0] heptan-7-one]
IC50 [1]: 2.7 µM

O=C1C[C@@H]2O[C@@H](CBr)CN12 (racemic) [Example 2.2, (3RS, 5SR)-3-Bromomethyl-4-oxa-1-azabicyclo[3.2.0]heptan-7-one]
IC50 [1]: 14.6 µM

(3RS, 5RS)- and (3RS, 5SR)-3-(2-Bromoethyl)-4-oxa-1-azabicyclo[3.2.0]heptan-7-one [Example 6.2]
M.I.C. (Staph. aureus Russell [2]): 500 µg/mL | M.I.C. Ampicillin (Staph. aureus Russell [3]): 0.4 µg/mL | Number of mice alive (Acute toxicity in mice; 250 mg./Kg. subcutaneous, Day 2): 5/5 | Number of mice alive (Acute toxicity in mice; 250 mg./Kg. subcutaneous, Day 3): 5/5 | Number of mice alive (Acute toxicity in mice; 250 mg./Kg. subcutaneous, Days 0 and 1): 5/5 | Number of mice alive (Acute toxicity in mice; 250 mg./Kg. subcutaneous, Days 4 to 7): 5/5 | Number of mice alive (Acute toxicity in mice; 500 mg./Kg. subcutaneous, Day 2): 5/5 | Number of mice alive (Acute toxicity in mice; 500 mg./Kg. subcutaneous, Day 3): 5/5 | Number of mice alive (Acute toxicity in mice; 500 mg./Kg. subcutaneous, Days 0 and 1): 5/5 | Number of mice alive (Acute toxicity in mice; 500 mg./Kg. subcutaneous, Days 4 to 7): 5/5 | Number of mice alive (Acute toxicity in mice; 1000 mg./Kg. subcutaneous, Day 2): 5/5 | Number of mice alive (Acute toxicity in mice; 1000 mg./Kg. subcutaneous, Day 3): 5/5 | Number of mice alive (Acute toxicity in mice; 1000 mg./Kg. subcutaneous, Days 0 and 1): 5/5 | Number of mice alive (Acute toxicity in mice; 1000 mg./Kg. subcutaneous, Days 4 to 7): 5/5 | Number of mice alive (Acute toxicity in mice; 2000 mg./Kg. subcutaneous, Day 2): 3/5 | Number of mice alive (Acute toxicity in mice; 2000 mg./Kg. subcutaneous, Day 3): 2/5 | Number of mice alive (Acute toxicity in mice; 2000 mg./Kg. subcutaneous, Days 0 and 1): 5/5 | Number of mice alive (Acute toxicity in mice; 2000 mg./Kg. subcutaneous, Days 4 to 7): 2/5 | Survival and weight gain of remaining mice (Acute toxicity in mice; 2000 mg./Kg. subcutaneous, end of observation period (7 days)): the other two remained alive and had gained weight | Deaths (Acute toxicity in mice; 2000 mg./Kg. subcutaneous, within 3 days): three out of the five mice were dead | Survival and weight gain over the observation period (Acute toxicity in mice; dosages up to 100 mg./Kg. subcutaneous, 7 days): all mice remained alive and gained in weight

O=C(OC[C@H]1CN2C(=O)C[C@@H]2O1)c1ccc([N+](=O)[O-])cc1 (racemic) [Example 14, (3RS, 5SR)-3-p-Nitrobenzoyloxymethyl-4-oxa-1-azabicyclo[3.2.0]heptan-7-one]
IC50 [1]: 15.1 µM

O=C1C[C@@H]2O[C@@H](CSc3ccccc3)CN12 (racemic) [Example 7, (3RS, 5SR)-3-Phenylthiomethyl-4-oxa-1-azabicyclo[3.2.0]heptan-7-one]
IC50 [1]: 10.2 µM

O=C1C[C@@H]2O[C@@H](COc3ccc([N+](=O)[O-])cc3)CN12 (racemic) [Example 15, (3RS, 5SR)-3-p-Nitrophenoxymethyl-4-oxa-1-azabicyclo[3.2.0]heptan-7-one]
IC50 [1]: 16.7 µM

O=C1C[C@@H]2O[C@@H](CS(=O)(=O)c3ccc([N+](=O)[O-])cc3)CN12 (relative stereo) [Example 0-20]
IC50 [1]: 5.44 µM

O=C(Nc1ccccc1)OC[C@H]1CN2C(=O)C[C@@H]2O1 (relative stereo) [Example 22, (3RS, 5SR)-3-(N-Phenylcarbamoyloxymethyl)-4-oxa-1-azabicyclo[3.2.0]heptan-7-one]
IC50 [1]: 9.15 µM
